Results taken from patent US6921824B1, “Ruthenium dimeric complexes suitable as antimetastatic and antineoplastic agents” (priority 1999, dated 2005).

What was measured:
MCa mammary carcinoma = assay: Pre-surgical treatment: prevention of lung metastases formation in mice with MCa mammary carcinoma; assay type: in vivo; conditions: for Lung metastases Number % T/C / Lung metastases weight % T/C: Treated/Control; for Lung metastases Number mean / Lung metastases weight (mg) mean: evaluated day 29; for Body weight % var: variation day 11 to day 16 vs untreated controls; for Selectivity of action on lung metastases versus primary tumour: MCa mammary carcinoma model of the CBA mouse; for Number of lung metastases (in words) / Weight of lung metastases (in words): at two dose levels, pre-surgical treatment
Description: In vivo tests of the activity of the compounds according to the present invention in mice affected from MCa mammary carcinoma: prevention activity in the formation of lung metastases.
Five groups of CBA kin female mice weighing 23±3 g were inoculated with […] viable cells (as determined by the Trypan blue exclusion) of MCa mammary carcinoma in 0.05 ml Dulbecco's pH 7.4 buffered calcium and magnesium-free solution (PBS), by intramuscular injection with a sterile insulin syringe. The tumour cells were derived from donors of the same strain, injected with the same tumour cells, following the same procedures 2 weeks before. The suspension of tumour cells was prepared in PBS by mechanically mincing the tumour mass obtained from donor mice, and further removing tissue debris and cells by, respectively, filtration through a double layer of sterile gauze and centrifugation at 250× g for 10 minutes. Kin animals were obtained from a colony from Chester Beatthy from London (UK) which were grown in the University of Trieste animal house accordingly to the procedures accepted for the rearing of kin animals. The MCa mammary carcinoma tumour cell-line derived from a stock, stored in liquid nitrogen, of tumour cells obtained originally from Rudjer Boskovic Institute of Zagreb (HR).
From day 11 to day 16, after tumour cells implantation, five mice groups were treated intraperitoneally with a sterile insulin syringe, respectively with: • Group 1 Control (10 animals): 10 ml/kg of body weight/day of sterile and pyrogen-free physiological solution; • Group 2 (two subgroups a,b of five animals each): 7.5 (a), 15 (b) mg/kg of body weight/day of the compound prepared as described in Example 4 in sterile and pyrogen-free physiological solution; • Group 3 (2 subgroups c,d of five animals each): 15 (c), 30 (d) mg/kg of body weight/day of the compound prepared as described in Example 7 in sterile and pyrogen-free physiological solution; • Group 4 (2 subgroups e,f of 5 animals each): 25 (e), 50 (f) mg/kg of body weight/day of the compound prepared as described in Example 8 in sterile and pyrogen-free physiological solution; • Group 5 (2 subgroups g,h of 5 animals each): 12.5 (g), 25 (h) mg/kg of body weight/day of the compound prepared as described in Example 10 in sterile and pyrogen-free physiological solution.
The administered dosages were either approximated to LD0.1, or to half of it or to a quarter of it, as calculated separately in animals of the same strain and gender and with the same body weight, for an intraperitoneal treatment lasting 6 consecutive days, according to the method of Lichtfield and Wilcoxon, and with an observation time of 10 days since the last dose.
On day 17 since tumour cells implantation, the primary tumour was surgically removed, after general anesthesia of the animals by intraperitoneal injection of 125 mg/kg of Ketamine.
On day 29 since tumour cells implantation, the mice were sacrificed by cervical dislocation for the evaluation of lung metastases. The lungs were abducted from the animals immediately after sacrifice, divided in single lobes which then examined immediately with a low-magnification microscope equipped with a graduated ocular-grid for the measurement of the size of the metastases in which the a and b orthogonal axes (a≦b) were identified. Metastases were classified by size and the metastatic tumour weight for each animal was calculated as the sum of each single metastasis weight, each of them considered as a rotation solid developed around the above mentioned axes and calculated according to the formula (π/6)·a^2·b. The experimental data obtained were then processed by appropriate statistical tests. […]

[1] = LD0.05 determination, intraperitoneal treatment for 6 consecutive days (Lichtfield and Wilcoxon); assay type: in vivo; conditions: observation time 10 days since last dose
Description: The dosages corresponding to the LD0.05, calculated separately in animals of the same strain and gender and having the same body weight, was administered intraperitoneally for 6 consecutive days, according to the method of Lichtfield and Wilcoxon, and with an observation time of 10 days since last dose.

[2] = 7.5 mg/kg/die i.p. day 11-16, pre-surgical
[3] = 15 mg/kg/die i.p. day 11-16, pre-surgical
[4] = 12.5 mg/kg/die i.p. day 11-16, pre-surgical
[5] = 25 mg/kg/die i.p. day 11-16, pre-surgical
[6] = 50 mg/kg/die i.p. day 11-16, pre-surgical
[7] = 30 mg/kg/die i.p. day 11-16, pre-surgical

Row | Compound | Lung metastases Number % T/C (MCa mammary carcinoma; [3]) [%] | Lung metastases weight % T/C (MCa mammary carcinoma; [3]) [%] | Lung metastases Number mean (MCa mammary carcinoma; [3]) | Lung metastases weight (mg) mean (MCa mammary carcinoma; [3]) [mg] | Body weight % var (MCa mammary carcinoma; 15 mg/kg/die i.p. day 11-16) [%] | Selectivity of action on lung metastases versus primary tumour (MCa mammary carcinoma) | Number of lung metastases (in words) (MCa mammary carcinoma) | Weight of lung metastases (in words) (MCa mammary carcinoma) | LD0.05 [1] | Lung metastases Number % T/C (MCa mammary carcinoma; [5]) [%] | Lung metastases weight % T/C (MCa mammary carcinoma; [5]) [%] | Lung metastases Number mean (MCa mammary carcinoma; [5]) | Lung metastases weight (mg) mean (MCa mammary carcinoma; [5]) [mg] | Body weight % var (MCa mammary carcinoma; 25 mg/kg/die i.p. day 11-16) [%] | other results
1 | C[SH](C)(=O)[Ru-]([Cl])([Cl])([Cl])([Cl])[n+]1cc[n+]([Ru-]([Cl])([Cl])([Cl])([Cl])[SH](C)(C)=O)cc1.[Na+].[Na+] [Example 4, [Na]2[trans-RuCl4(Me2SO)]2(μ-pyz)] | 4 | 0 | 2.0 | 0.2 | −3.3 | act selectively on lung metastases | marked reduction | even more marked reduction | 28 mg/kg of body weight/day | – | – | – | – | – | Lung metastases Number % T/C (MCa mammary carcinoma; [2]): 27%; Lung metastases weight % T/C (MCa mammary carcinoma; [2]): 10%; Lung metastases Number mean (MCa mammary carcinoma; [2]): 14.0; Lung metastases weight (mg) mean (MCa mammary carcinoma; [2]): 8 mg; Body weight % var (MCa mammary carcinoma; 7.5 mg/kg/die i.p. day 11-16): −4.6%
2 | C[SH](C)(=O)[Ru-]([Cl])([Cl])([Cl])([Cl])[n+]1ccc(CCc2cc[n+]([Ru-]([Cl])([Cl])([Cl])([Cl])[SH](C)(C)=O)cc2)cc1.[Na+].[Na+] [Example 10, [Na]2[trans-RuCl4(Me2SO)]2(μ-etbipy)] | – | – | – | – | – | act selectively on lung metastases | marked reduction | even more marked reduction | 52 mg/kg of body weight/day | 25 | 1 | 13.0 | 1.2 | −1.1 | Lung metastases Number % T/C (MCa mammary carcinoma; [4]): 15%; Lung metastases weight % T/C (MCa mammary carcinoma; [4]): 6%; Lung metastases Number mean (MCa mammary carcinoma; [4]): 8.0; Lung metastases weight (mg) mean (MCa mammary carcinoma; [4]): 4.6 mg; Body weight % var (MCa mammary carcinoma; 12.5 mg/kg/die i.p. day 11-16): −2.8%
3 | [Na]2[trans-RuCl4(Me2SO)]2(μ-bipy) [Example 8] | – | – | – | – | – | act selectively on lung metastases | – | – | 51 mg/kg of body weight/day | 213 | 144 | 111 | 119 | −3.4 | Lung metastases Number % T/C (MCa mammary carcinoma; [6]): 15%; Lung metastases weight % T/C (MCa mammary carcinoma; [6]): 4%; Lung metastases Number mean (MCa mammary carcinoma; [6]): 8.0; Lung metastases weight (mg) mean (MCa mammary carcinoma; [6]): 3.1 mg; Body weight % var (MCa mammary carcinoma; 50 mg/kg/die i.p. day 11-16): −1.7%
4 | C[SH](C)(=O)[Ru-]([Cl])([Cl])([Cl])([Cl])[n+]1ccc[n+]([Ru-]([Cl])([Cl])([Cl])([Cl])[SH](C)(C)=O)c1.[Na+].[Na+] [Example 7, [Na]2[trans-RuCl4(Me2SO)]2(μ-pym)] | 10 | 2 | 5.0 | 1.7 | −1.4 | act selectively on lung metastases | marked reduction | even more marked reduction | 28 mg/kg of body weight/day | – | – | – | – | – | Lung metastases Number % T/C (MCa mammary carcinoma; [7]): 6%; Lung metastases weight % T/C (MCa mammary carcinoma; [7]): 1%; Lung metastases Number mean (MCa mammary carcinoma; [7]): 3.0; Lung metastases weight (mg) mean (MCa mammary carcinoma; [7]): 0.8 mg; Body weight % var (MCa mammary carcinoma; 30 mg/kg/die i.p. day 11-16): −2.7%
